Experimental data as given in patent US9376418B2, “Substituted pyridine spleen tyrosine kinase (SYK) inhibitors” (Merck Sharp & Dohme Corp., priority 2012, dated 2016).

Molecular target: T1, recombinant human GST-SYK (Homo sapiens, UniProt P43405)
T1 construct: purchased Carna Biosciences 08-176
Experiment: Homogeneous Time-Resolved Fluorescence (HTRF) assay for the recombinant human Syk enzyme
Format: biochemical
Conditions: HTRF assay, recombinant human GST-SYK; IC50 given as class symbols; read-out: rhSYK Activity
In short: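 GST-hSYK ([…]) was preincubated with inhibitor (0.1% DMSO) for 10 min at room temperature in Tris-HCl pH 7.5 with tween 20 and DTT. Biotinylated peptide (250 nM), Mg (5 mM) and ATP (25 μM) were added for 45 min. The reaction was quenched with EDTA, and phosphotyrosine was read by Eu-antibody/SA-APC HTRF after 30 min.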

IC50, 1000 to 10000 nM:
CCCOC1CCCN(c2cc(-c3cc(C)cc(Nc4nccc(C(F)(F)F)n4)c3)ccn2)C1 (stereo not drawn) [Example 15.79, N-{3-methyl-5-[2-(3-propoxypiperidin-1-yl)pyridin-4-yl]phenyl}-4-(trifluoromethyl)pyrimidin-2-amine]

IC50, 100 to 1000 nM:
Cc1cc(Nc2nccc(C(F)(F)F)n2)cc(-c2ccnc(NCC(=O)N(C)C)c2)c1 [Example 15.82, N,N-dimethyl-N~2~-[4-(3-methyl-5-{[4-(trifluoromethyl)pyrimidin-2-yl]amino}phenyl)pyridin-2-yl]glycinamide]
Cc1cc(Nc2nccc(C(F)(F)F)n2)cc(-c2ccc(N3CCC4(CCCCN4)CC3)nc2)c1 [Example 7.10, N-{3-[6-(1,9-diazaspiro[5.5]undec-9-yl)pyridin-3-yl]-5-methylphenyl}-4-(trifluoromethyl)pyrimidin-2-amine]
COCC1CCN(c2cc(-c3cc(C)cc(Nc4nccc(C(F)(F)F)n4)c3)ccn2)C1 (stereo not drawn) [Example 15.77, N-(3-{2-[3-(methoxymethyl)pyrrolidin-1-yl]pyridin-4-yl}-5-methylphenyl)-4-(trifluoromethyl)pyrimidin-2-amine]
Cc1cc(Nc2nccc(C(F)(F)F)n2)cc(-c2ccc(N3CCN(S(C)(=O)=O)CC3)nc2)c1 [Example 7.48, N-(3-methyl-5-{6-[4-(methylsulfonyl)piperazin-1-yl]pyridin-3-yl}phenyl)-4-(trifluoromethyl)pyrimidin-2-amine]
CNC(=O)CCNc1cc(-c2cc(C)cc(Nc3nccc(C(F)(F)F)n3)c2)ccn1 [Example 15.78, N-methyl-N~3~-[4-(3-methyl-5-{[4-(trifluoromethyl)pyrimidin-2-yl]amino}phenyl)pyridin-2-yl]-beta-alaninamide]
Cc1cc(Nc2nccc(C(F)(F)F)n2)cc(-c2ccnc(N3CCCC34CCNC4=O)c2)c1 (stereo not drawn) [Example 15.36, 1-[4-(3-methyl-5-{[4-(trifluoromethyl)pyrimidin-2-yl]amino}phenyl)pyridin-2-yl]-1,7-diazaspiro[4.4]nonan-6-one]
CCC(CO)NC(=O)c1ccc(-c2cc(C)cc(Nc3nccc(C(F)(F)F)n3)c2)cn1 (stereo not drawn) [Example 16.9, N-[1-(hydroxymethyl)propyl]-5-(3-methyl-5-{[4-(trifluoromethyl)pyrimidin-2-yl]amino}phenyl)pyridine-2-carboxamide]

IC50, < 100 nM:
Cc1cc(Nc2nccc(C(F)(F)F)n2)cc(-c2ccc(C(=O)N(C)CC(O)CO)nc2)c1 (stereo not drawn) [Example 16.56, N-(2,3-dihydroxypropyl)-N-methyl-5-(3-methyl-5-{[4-(trifluoromethyl)pyrimidin-2-yl]amino}phenyl)pyridine-2-carboxamide]
Cc1cc(Nc2nccc(C(F)(F)F)n2)cc(-c2ccnc(N(C)CCO)c2)c1 [Example 15.45, 2-{methyl[4-(3-methyl-5-{[4-(trifluoromethyl)pyrimidin-2-yl]amino}phenyl)pyridin-2-yl]amino}ethanol]
Cc1cc(Nc2nccc(C(F)(F)F)n2)cc(-c2ccc(N[C@H](C(=O)O)C(C)(C)C)nc2)c1 [Example 7.106, 3-methyl-N-[5-(3-methyl-5-{[4-(trifluoromethyl)pyrimidin-2-yl]amino}phenyl)pyridin-2-yl]-L-valine]
Cc1cc(Nc2nccc(C(F)(F)F)n2)cc(-c2ccc(N3CC[C@H]3C(=O)O)nc2)c1 [Example 7.6, (2S)-1-[5-(3-methyl-5-{[4-(trifluoromethyl)pyrimidin-2-yl]amino}phenyl)pyridin-2-yl]azetidine-2-carboxylic acid]
Cc1cc(Nc2nccc(C(F)(F)F)n2)cc(-c2cccc(C(=O)O)n2)c1 [Example 2.13, 6-(3-methyl-5-{[4-(trifluoromethyl)pyrimidin-2-yl]amino}phenyl)pyridine-2-carboxylic acid]
Cc1cc(Nc2nccc(C(F)(F)F)n2)cc(-c2ccc(N3CC[C@H]3C(N)=O)nc2)c1 [Example 12.9, (2S)-1-[5-(3-methyl-5-{[4-(trifluoromethyl)pyrimidin-2-yl]amino}phenyl)pyridin-2-yl]azetidine-2-carboxamide]
Cc1cc(Nc2nccc(C(F)(F)F)n2)cc(-c2ccc(N3CCC[C@H]3C(N)=O)nc2)c1 [Example 7.57, 1-[5-(3-methyl-5-{[4-(trifluoromethyl)pyrimidin-2-yl]amino}phenyl)pyridin-2-yl]-L-prolinamide]
O=C(O)c1cncc(-c2cccc(Nc3nccc(C(F)(F)F)n3)c2)c1 [Example 2.73, 5-(3-{[4-(trifluoromethyl)pyrimidin-2-yl]amino}phenyl)pyridine-3-carboxylic acid]
Cc1cc(Nc2nccc(C(F)(F)F)n2)cc(-c2ccc(N3CCC[C@@H](C(=O)N4CCC[C@H](C(=O)O)C4)C3)nc2)c1 [Example 7.150, (3S)-1-({(3R)-1-[5-(3-methyl-5-{[4-(trifluoromethyl)pyrimidin-2-yl]amino}phenyl)pyridin-2-yl]piperidin-3-yl}carbonyl)piperidine-3-carboxylic acid]
CCOC(=O)CCc1ccc(-c2cc(C)cc(Nc3nccc(C4CC4)n3)c2)cn1 [Example 2.103, ethyl 3-(5-{3-[(4-cyclopropylpyrimidin-2-yl)amino]-5-methylphenyl}pyridin-2-yl)propanoate]
CCN(C)C(=O)c1ccc(-c2cc(C)cc(Nc3nccc(C(F)(F)F)n3)c2)cn1 [Example 16.59, N-ethyl-N-methyl-5-(3-methyl-5-{[4-(trifluoromethyl)pyrimidin-2-yl]amino}phenyl)pyridine-2-carboxamide]
COc1ccnc(Nc2cc(C)cc(-c3cc(CCC(=O)O)ccn3)c2)n1 [Example 2.21, 3-(2-{3-[(4-methoxypyrimidin-2-yl)amino]-5-methylphenyl}pyridin-4-yl)propanoic acid]
Cc1cc(Nc2ncc(F)c(C3CC3)n2)cc(-c2ccc(N3CC[C@H]3C(=O)O)nc2)c1 [Example 7.161, (2S)-1-(5-{3-[(4-cyclopropyl-5-fluoropyrimidin-2-yl)amino]-5-methylphenyl}pyridin-2-yl)azetidine-2-carboxylic acid]
Cc1cc(Nc2nccc(C3CC3)n2)cc(-c2ccc(C(C)(O)[C@H]3CC[C@H](C(=O)O)CC3)nc2)c1 (stereo partly drawn) [Example 9.6, trans-4-(1-(5-(3-(4-cyclopropylpyrimidin-2-ylamino)-5-methylphenyl)pyridin-2-yl)-1-hydroxyethyl)cyclohexanecarboxylic acid]
Cc1cc(Nc2nccc(C(F)(F)F)n2)cc(-c2cnc3c(c2)OCCN3C)c1 [Example 2.55, N-[3-methyl-5-(4-methyl-3,4-dihydro-2H-pyrido[3,2-b][1,4]oxazin-7-yl)phenyl]-4-(trifluoromethyl)pyrimidin-2-amine]
Cc1cc(Nc2ncc(Cl)c(C)n2)cc(-c2ccc(C(C)(O)C3CCC(C(=O)O)CC3)nc2)c1 (single isomer, unassigned) [Example 9.82, trans-4-[(1R or 1S)-1-(5-{3-[(5-chloro-4-methylpyrimidin-2-yl)amino]-5-methylphenyl}pyridin-2-yl)-1-hydroxyethyl]cyclohexanecarboxylic acid]
